Values joined by “and” are separate entries in the source; they are usually repeats but may differ in a detail not shown here. Identical values can stand only once. Inconclusive results and toxic doses are left out.
Test system: nude mice, LOX melanoma ip, survival T/C
Assay: NCI In Vivo Anticancer Drug Screen. Data for tumor model Human Amelanotic Melanoma (LOX) (intraperitoneal) in NU/NU BALB/C (nude) mice
Details: endpoint: median survival time, higher = longer survival
Method: The antitumor activity of compounds was measured in mice bearing transplantable tumors. Survival or tumor size were measured and the results are expressed as the measurement made in the treated group (T) divided by the measurement made in the vehicle treated control group (C). The tumor model used in this assay is Human Amelanotic Melanoma (LOX) (intraperitoneal) in NU/NU BALB/C (nude) mice

[1] = dose: 25.0 mg/kg/injection, schedule: Q04DX003 (ip), vehicle: saline with Tween-80
[2] = dose: 50.0 mg/kg/injection, schedule: Q04DX003 (ip), vehicle: saline with Tween-80
[3] = dose: 100.0 mg/kg/injection, schedule: Q04DX003 (ip), vehicle: saline with Tween-80

## O=NNc1cnccn1
dose: 11.3 mg/kg/injection, schedule: Q01DX009 (ip), vehicle: other
  T/C: 110 % of control
dose: 11.3 mg/kg/injection, schedule: Q03HX008 (ip), vehicle: other
  T/C: 117 % of control
dose: 12.5 mg/kg/injection, schedule: Q04DX003 (ip), vehicle: water
  T/C: 110 % of control
dose: 16.9 mg/kg/injection, schedule: Q01DX005 (iv), vehicle: other
  T/C: 97 % of control
dose: 16.9 mg/kg/injection, schedule: Q01DX009 (ip), vehicle: other
  T/C: 153 % of control
dose: 25.3 mg/kg/injection, schedule: Q01DX009 (ip), vehicle: other
  T/C: 175 % of control
dose: 25.3 mg/kg/injection, schedule: Q03HX008 (ip), vehicle: other
  T/C: 159 % of control
dose: 29.7 mg/kg/injection, schedule: Q04DX003 (ip), vehicle: water
  T/C: 201 % of control
dose: 38.0 mg/kg/injection, schedule: Q01DX005 (iv), vehicle: other
  T/C: 153 % of control
dose: 38.0 mg/kg/injection, schedule: Q01DX009 (ip), vehicle: other
  T/C: 189 % of control
dose: 38.0 mg/kg/injection, schedule: Q04DX003 (iv), vehicle: other
  T/C: 123 % of control
dose: 44.5 mg/kg/injection, schedule: Q04DX003 (ip), vehicle: water
  T/C: 180 % of control and 189 % of control
dose: 50.0 mg/kg/injection, schedule: Q04DX003 (ip), vehicle: water
  T/C: 156 % of control
dose: 57.0 mg/kg/injection, schedule: Q01DX001 (ip), vehicle: other
  T/C: 116 % of control
dose: 57.0 mg/kg/injection, schedule: Q01DX001 (iv), vehicle: other
  T/C: 115 % of control
dose: 57.0 mg/kg/injection, schedule: Q01DX005 (iv), vehicle: other
  T/C: 191 % of control
dose: 57.0 mg/kg/injection, schedule: Q01DX009 (ip), vehicle: other
  T/C: 220 % of control
dose: 57.0 mg/kg/injection, schedule: Q04DX003 (ip), vehicle: other
  T/C: 170 % of control
dose: 57.0 mg/kg/injection, schedule: Q04DX003 (iv), vehicle: other
  T/C: 154 % of control
dose: 66.7 mg/kg/injection, schedule: Q04DX003 (ip), vehicle: water
  T/C: 200 % of control and 221 % of control
dose: 85.4 mg/kg/injection, schedule: Q01DX001 (iv), vehicle: other
  T/C: 120 % of control
dose: 85.4 mg/kg/injection, schedule: Q04DX003 (ip), vehicle: other
  T/C: 185 % of control
dose: 85.4 mg/kg/injection, schedule: Q04DX003 (iv), vehicle: other
  T/C: 159 % of control
dose: 85.4 mg/kg/injection, schedule: Q08DX002 (ip), vehicle: other
  T/C: 150 % of control
dose: 100.0 mg/kg/injection, schedule: Q04DX003 (ip), vehicle: water
  T/C: 232 % of control and 250 % of control and 301 % of control
dose: 128.0 mg/kg/injection, schedule: Q01DX001 (ip), vehicle: other
  T/C: 170 % of control
dose: 128.0 mg/kg/injection, schedule: Q04DX003 (ip), vehicle: other
  T/C: 170 % of control
dose: 128.0 mg/kg/injection, schedule: Q04DX003 (iv), vehicle: other
  T/C: 91 % of control
dose: 128.0 mg/kg/injection, schedule: Q08DX002 (ip), vehicle: other
  T/C: 180 % of control
dose: 150.0 mg/kg/injection, schedule: Q04DX003 (ip), vehicle: water
  T/C: 248 % of control and 296 % of control
dose: 192.0 mg/kg/injection, schedule: Q01DX001 (ip), vehicle: other
  T/C: 180 % of control
dose: 192.0 mg/kg/injection, schedule: Q08DX002 (ip), vehicle: other
  T/C: 300 % of control
dose: 200.0 mg/kg/injection, schedule: Q04DX003 (ip), vehicle: water
  T/C: 121 % of control

## COc1cc(C(CC(C)=O)c2cc3c(cc2OC(C)=O)OCO3)cc(OC)c1OC (stereo unspecified) (tested in a mixture with another compound)
[1]
  T/C: 104 % of control
[2]
  T/C: 106 % of control
[3]
  T/C: 115 % of control
dose: 200.0 mg/kg/injection, schedule: Q04DX003 (ip), vehicle: saline with Tween-80
  T/C: 120 % of control

## CC[C@]1(O)C[C@H]2CN(CCc3c([nH]c4ccccc34)[C@@](C(=O)OC)(c3cc4c(cc3OC)N(C)[C@H]3[C@@](O)(C(=O)OC)[C@H](OC(C)=O)[C@]5(CC)C=CCN6CC[C@]43[C@@H]65)C2)C1
dose: 0.44 mg/kg/injection, schedule: Q04DX003 (iv), vehicle: saline
  T/C: 107 % of control
dose: 0.67 mg/kg/injection, schedule: Q04DX003 (ip), vehicle: saline
  T/C: 110 % of control and 203 % of control
dose: 0.67 mg/kg/injection, schedule: Q04DX003 (iv), vehicle: saline
  T/C: 112 % of control
dose: 1.7 mg/kg/injection, schedule: Q04DX003 (ip), vehicle: saline
  T/C: 123 % of control and 203 % of control
dose: 1.7 mg/kg/injection, schedule: Q04DX003 (iv), vehicle: saline
  T/C: 188 % of control

## O=C1C=C(N2CC2)C(=O)C(N2CC2)=C1N1CC1
dose: 25.0 micrograms/kg/injection, schedule: Q04DX003 (ip), vehicle: saline
  T/C: 177 % of control
dose: 43.0 micrograms/kg/injection, schedule: Q04DX003 (ip), vehicle: saline
  T/C: 116 % of control
dose: 100.0 micrograms/kg/injection, schedule: Q04DX003 (ip), vehicle: saline
  T/C: 220 % of control
dose: 120.0 micrograms/kg/injection, schedule: Q04DX003 (ip), vehicle: saline
  T/C: 158 % of control
dose: 200.0 micrograms/kg/injection, schedule: Q04DX003 (ip), vehicle: saline
  T/C: 277 % of control
dose: 333.0 micrograms/kg/injection, schedule: Q04DX003 (ip), vehicle: saline
  T/C: 187 % of control

## NCCCC(N)(C(=O)O)C(F)F (stereo unspecified)
dose: 75.0 mg/kg/injection, schedule: Q04DX003 (ip), vehicle: distilled water + alcohol
  T/C: 112 % of control
dose: 150.0 mg/kg/injection, schedule: Q04DX003 (ip), vehicle: distilled water + alcohol
  T/C: 111 % of control
dose: 300.0 mg/kg/injection, schedule: Q04DX003 (ip), vehicle: distilled water + alcohol
  T/C: 101 % of control
dose: 600.0 mg/kg/injection, schedule: Q04DX003 (ip), vehicle: distilled water + alcohol
  T/C: 97 % of control
dose: 1200.0 mg/kg/injection, schedule: Q04DX003 (ip), vehicle: distilled water + alcohol
  T/C: 106 % of control

## C/C=C/C=C/c1cc2cc3c(c(O)c2c(=O)[nH]1)C1(CC3)C(O)=c2c(=O)c3c(=O)cc(OC)c(=O)c=3c(=O)c2=C1O (stereo unspecified)
dose: 1.0 mg/kg/injection, schedule: Q04DX003 (ip), vehicle: water
  T/C: 155 % of control
dose: 1.8 mg/kg/injection, schedule: Q04DX003 (ip), vehicle: water
  T/C: 155 % of control
dose: 3.0 mg/kg/injection, schedule: Q04DX003 (ip), vehicle: water
  T/C: 169 % of control and 177 % of control
dose: 5.0 mg/kg/injection, schedule: Q04DX003 (ip), vehicle: water
  T/C: 177 % of control
dose: 8.3 mg/kg/injection, schedule: Q04DX003 (ip), vehicle: water
  T/C: 189 % of control

## CCOC(=O)Nc1cc2c(c(N)n1)N=C(c1ccc3ccccc3c1)CN2
dose: 14.4 mg/kg/injection, schedule: Q04DX003 (ip), vehicle: saline with Tween-80
  T/C: 100 % of control
dose: 24.0 mg/kg/injection, schedule: Q04DX003 (ip), vehicle: saline with Tween-80
  T/C: 123 % of control
dose: 40.0 mg/kg/injection, schedule: Q04DX003 (ip), vehicle: saline with Tween-80
  T/C: 103 % of control and 112 % of control
dose: 66.66 mg/kg/injection, schedule: Q04DX003 (ip), vehicle: saline with Tween-80
  T/C: 109 % of control
dose: 67.0 mg/kg/injection, schedule: Q04DX003 (ip), vehicle: saline with Tween-80
  T/C: 111 % of control
dose: 111.0 mg/kg/injection, schedule: Q04DX003 (ip), vehicle: saline with Tween-80
  T/C: 112 % of control
dose: 185.0 mg/kg/injection, schedule: Q04DX003 (ip), vehicle: saline with Tween-80
  T/C: 122 % of control

## Cc1c2ccccc2c(C)c2c1cc(C(=O)O)c1ccccc12
dose: 12.5 mg/kg/injection, schedule: Q04DX003 (ip), vehicle: sodium bicarbonate
  T/C: 115 % of control
dose: 25.0 mg/kg/injection, schedule: Q04DX003 (ip), vehicle: sodium bicarbonate
  T/C: 118 % of control
dose: 200.0 mg/kg/injection, schedule: Q04DX003 (ip), vehicle: sodium bicarbonate
  T/C: 167 % of control

## CN(C)/N=N/c1nc[nH]c1C(N)=O
dose: 100.0 mg/kg/injection, schedule: Q04DX003 (ip), vehicle: Klucel (hydroxypropylcellulose) (HPC)
  T/C: 107 % of control

## O=S(=O)(O)c1cc(N=C=S)ccc1/C=C/c1ccc(N=C=S)cc1S(=O)(=O)O
dose: 3.75 mg/kg/injection, schedule: Q04DX003 (ip), vehicle: saline
  T/C: 103 % of control
dose: 7.5 mg/kg/injection, schedule: Q04DX003 (ip), vehicle: saline
  T/C: 104 % of control
dose: 15.0 mg/kg/injection, schedule: Q04DX003 (ip), vehicle: saline
  T/C: 90 % of control
dose: 30.0 mg/kg/injection, schedule: Q04DX003 (ip), vehicle: saline
  T/C: 94 % of control

## CC1/C=C/C=C/CC/C=C/C=C/C=C/C=C/C(OC2OC(C)C(O)C(N)C2O)CC2OC(CC(O)C(O)CCC(O)CC(O)CC(O)CC(=O)OC(C)C(C)C1O)CC(O)C2C(=O)O (stereo unspecified)
[1]
  T/C: 101 % of control
[2]
  T/C: 101 % of control
[3]
  T/C: 111 % of control

— PubChem BioAssay AID280 (DTP/NCI, 2004)
